According to PMC6028563, “Probing Substituents in the 1- and 3-Position: Tetrahydropyrazino-Annelated Water-Soluble Xanthine Derivatives as Multi-Target Drugs With Potent Adenosine Receptor Antagonistic Activity” (Frontiers in Chemistry, 2018):

Key:
rat A1 AR = biological target: T1, rat A1 AR (Rattus norvegicus, UniProt P25099); assay: Radioligand binding assay at rat A1 AR (rat brain cortex) vs. [^3H]CCPA; conditions: rat (r); for Ki: rat brain cortex, n = 3; for inhibition at 1.5 µM: read-out: % inhibition of radioligand binding at indicated concentration, A1 vs. [^3H]CCPA, at 1,500 nM
T1 construct: A1 ARs of rat brain cortical membrane; from tissue; host or cells: rat brain cortex membranes
T1 sequence (P25099 1-326): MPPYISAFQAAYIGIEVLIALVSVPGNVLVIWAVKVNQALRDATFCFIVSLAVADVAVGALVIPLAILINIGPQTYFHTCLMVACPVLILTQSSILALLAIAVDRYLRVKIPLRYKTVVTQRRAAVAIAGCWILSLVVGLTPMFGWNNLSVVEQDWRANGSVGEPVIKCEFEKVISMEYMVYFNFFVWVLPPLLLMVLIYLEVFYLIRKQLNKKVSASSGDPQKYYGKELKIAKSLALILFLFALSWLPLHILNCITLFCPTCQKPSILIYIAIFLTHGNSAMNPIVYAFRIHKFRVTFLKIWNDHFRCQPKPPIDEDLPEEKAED
Description: (§1) Membrane preparations and radioligand binding assays at rat A1 (rat brain cortex) and rat A2A ARs (rat brain striatum) were performed as previously described (Ozola et al., [2003]; Alnouri et al., [2015]). For assays at human A1, A2A, A2B, and A3 ARs, CHO cell membranes expressing one of the human AR subtypes were used as previously reported (Klotz et al., [1998]; Alnouri et al., [2015]; De Filippo et al., [2016]).
(§2) The synthesized tetrahydropyrazino[2,1-f ]purinediones 13–20 were evaluated in radioligand binding assays for their affinity to A1 ARs of rat brain cortical membrane and to A2A ARs of rat brain striatal membrane preparations. Selected compounds were further investigated for their affinity to human A1 and A2A ARs recombinantly expressed in Chinese hamster ovary (CHO) cells. All compounds were additionally investigated for their affinity to human A2B and A3 ARs recombinantly expressed in CHO cells to determine their AR subtype selectivity. […] It is well known that all xanthine derivatives lacking a ribose moiety, including tricyclic compounds, can only block ARs, but never act as AR agonists; therefore, additional functional studies were not required. […] Potent MAO-B inhibitors were additionally investigated for inhibition of human MAO-A to assess their selectivity. Results are presented in Tables 1–6, and data of standard ligands are included for comparison.

rat A2A AR = biological target: T2, rat A2A AR (Rattus norvegicus, UniProt P30543); assay: Radioligand binding assay at rat A2A AR (rat brain striatum) vs. [^3H]MSX-2; conditions: rat (r); for % inhibition of radioligand binding at indicated concentration, A2A vs. [^3H]MSX-2: at 1,000 nM; for Ki: rat brain striatum, n = 3, read-out: Ki ± SEM, A2A vs. [^3H]MSX-2
T2 construct: A2A ARs of rat brain striatal membrane preparations; from tissue; host or cells: rat brain striatum membranes
Description: as §1, §2

human A2B AR = biological target: T3, human A2B AR (Homo sapiens, UniProt P29275); assay: Radioligand binding assay at human A2B AR vs. [^3H]PSB-603; conditions: for Ki: CHO cell membranes, n = 2 (n = 3 where marked a), read-out: Ki ± SEM, A2B vs. [^3H]PSB-603; for inhibition at 1 µM: at 1,000 nM
T3 construct: expressed in transfected cells; host or cells: CHO cells
T3 sequence (P29275 1-332): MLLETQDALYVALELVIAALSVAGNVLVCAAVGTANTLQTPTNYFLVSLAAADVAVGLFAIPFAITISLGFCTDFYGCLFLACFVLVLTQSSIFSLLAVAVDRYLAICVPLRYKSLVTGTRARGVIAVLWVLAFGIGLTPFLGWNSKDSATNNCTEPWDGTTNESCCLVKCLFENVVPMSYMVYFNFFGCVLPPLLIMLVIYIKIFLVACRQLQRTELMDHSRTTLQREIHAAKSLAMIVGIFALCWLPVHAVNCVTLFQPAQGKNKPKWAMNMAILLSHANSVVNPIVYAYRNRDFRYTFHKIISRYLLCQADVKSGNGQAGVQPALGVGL
Description: as §1, §2

human A3 AR = biological target: T4, human A3 AR (Homo sapiens, UniProt P0DMS8); assay: Radioligand binding assay at human A3 AR vs. [^3H]PSB-11; conditions: for Ki: CHO cell membranes, n = 2 (n = 3 where marked a), read-out: Ki ± SEM, A3 vs. [^3H]PSB-11; for inhibition at 10 µM: at 10,000 nM, read-out: % inhibition of radioligand binding at indicated concentration, A3 vs. [^3H]PSB-11
T4 construct: expressed in transfected cells; host or cells: CHO cells
T4 sequence (P0DMS8 1-318): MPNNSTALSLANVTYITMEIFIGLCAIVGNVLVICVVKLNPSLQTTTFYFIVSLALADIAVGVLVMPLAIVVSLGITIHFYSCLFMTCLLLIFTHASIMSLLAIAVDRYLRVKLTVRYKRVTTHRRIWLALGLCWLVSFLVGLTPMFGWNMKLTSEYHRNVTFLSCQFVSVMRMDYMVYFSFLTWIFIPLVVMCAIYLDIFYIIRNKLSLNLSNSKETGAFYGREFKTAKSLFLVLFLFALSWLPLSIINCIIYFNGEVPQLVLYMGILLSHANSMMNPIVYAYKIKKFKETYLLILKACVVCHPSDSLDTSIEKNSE
Description: as §1, §2

recombinant human MAO-B = biological target: T5, recombinant human MAO-B (Homo sapiens, UniProt P27338); assay: Monoamine oxidase assay (Amplex Red), MAO-B; type: biochemical; conditions: for inhibition at 10 µM: at 10,000 nM (10 μM), read-out: % inhibition at indicated concentration, Human MAO-B; for IC50: n = 3, read-out: IC50 ± SEM, Human MAO-B
T5 construct: purchased Sigma-Aldrich M7441; host or cells: baculovirus-infected insect cells
T5 sequence (P27338 1-520): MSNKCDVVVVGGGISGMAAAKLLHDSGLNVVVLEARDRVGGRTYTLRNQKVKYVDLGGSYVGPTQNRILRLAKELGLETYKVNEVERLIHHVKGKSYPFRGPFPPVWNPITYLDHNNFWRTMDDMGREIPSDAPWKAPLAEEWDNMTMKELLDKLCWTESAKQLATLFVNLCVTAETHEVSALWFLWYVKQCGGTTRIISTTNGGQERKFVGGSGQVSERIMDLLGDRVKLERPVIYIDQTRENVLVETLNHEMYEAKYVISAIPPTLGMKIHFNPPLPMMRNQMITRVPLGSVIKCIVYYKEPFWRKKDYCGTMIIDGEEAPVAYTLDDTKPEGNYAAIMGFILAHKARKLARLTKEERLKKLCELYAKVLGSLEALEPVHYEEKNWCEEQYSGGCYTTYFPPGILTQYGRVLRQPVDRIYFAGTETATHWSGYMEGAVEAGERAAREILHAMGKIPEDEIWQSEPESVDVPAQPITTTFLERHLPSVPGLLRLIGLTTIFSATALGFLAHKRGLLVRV
Description: The determination of MAO-A and MAO-B inhibition was performed using commercially available recombinant human MAO-A and MAO-B enzymes expressed in baculovirus-infected insects sells (Sigma-Aldrich, M7316 and M7441) applying the commercially available Amplex® Red monoamine oxidase assay kit (Invitrogen A12214). The assays were performed as previously described. The determination of rat MAO-B inhibition was performed using mitochondrial-enriched fractions from male Sprague Dawley rat livers. […]

[1] = read-out: % inhibition of radioligand binding at indicated concentration, A2B vs. [^3H]PSB-603

T2 sequence (P30543 whole entry): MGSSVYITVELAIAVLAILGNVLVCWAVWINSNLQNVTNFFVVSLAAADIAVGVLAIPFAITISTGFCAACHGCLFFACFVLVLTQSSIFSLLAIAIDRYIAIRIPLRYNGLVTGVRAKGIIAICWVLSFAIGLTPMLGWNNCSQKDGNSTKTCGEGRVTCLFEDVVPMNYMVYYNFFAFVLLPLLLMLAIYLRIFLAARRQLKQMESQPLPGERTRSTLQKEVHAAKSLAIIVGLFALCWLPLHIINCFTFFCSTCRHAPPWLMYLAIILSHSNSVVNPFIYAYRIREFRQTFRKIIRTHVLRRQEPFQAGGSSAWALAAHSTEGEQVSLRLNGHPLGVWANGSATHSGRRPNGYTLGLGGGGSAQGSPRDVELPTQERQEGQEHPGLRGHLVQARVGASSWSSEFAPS

Compound | Ki (rat A1 AR) [µM] | inhibition at 1.5 µM (rat A1 AR) [%] | % inhibition of radioligand binding at indicated concentration, A2A vs. [^3H]MSX-2 (rat A2A AR) [%] | Ki (rat A2A AR) [µM] | Ki (human A2B AR) [µM] | inhibition at 1 µM (human A2B AR; [1]) [%] | Ki (human A3 AR) [µM] | inhibition at 10 µM (recombinant human MAO-B) [%] | IC50 (recombinant human MAO-B) [µM] | inhibition at 10 µM (human A3 AR) [%] | inhibition at 0.3 µM (human A2B AR; at 300 nM, read-out: % inhibition of radioligand binding at indicated concentration, A2B vs. [^3H]PSB-603) [%] | inhibition at 0.1 µM (human A2B AR; at 100 nM, read-out: % inhibition of radioligand binding at indicated concentration, A2B vs. [^3H]PSB-603) [%]
CCn1c(=O)c2c(nc3n2CCN(Cc2ccc(Cl)cc2C(F)(F)F)C3)n(CC)c1=O [Compound 15o, 8-(4-chloro-2-(trifluoromethyl)benzyl)-1,3-diethyl-6,7,8,9-tetrahydropyrazino[2,1-f]purine-2,4(1H,3H)-dione] | > 1.5 | 41 | 19 | > 1 | > 1 | 16 | 1.69 | 5 | > 10 |  |  | 
C#CCn1c(=O)c2c(nc3n2CCN(CCc2ccc(OC)cc2)C3)n(CC)c1=O [Compound 20k, 1-ethyl-8-(4-methoxyphenethyl)-3-propargyl-6,7,8,9-tetrahydropyrazino[2,1-f]purine-2,4(1H,3H)-dione] | 1.6 |  |  | 2.7 | > 1 | 10 | > 10 | 25 | > 10 | 22 |  | 
Cn1c(=O)[nH]c(=O)c2c1nc1n2CCN(Cc2cccc(C(F)(F)F)c2)C1 [Compound 13b, 1-methyl-8-(3-(trifluoromethyl)benzyl)-6,7,8,9-tetrahydropyrazino[2,1-f]purine-2,4(1H,3H)-dione] | > 1.5 | -1 | 5 | > 1 | > 1 | 2 | > 10 | 14 | > 10 | 35 |  | 
Cn1c(=O)[nH]c(=O)c2c1nc1n2CCN(CCc2cccc(Br)c2)C1 [Compound 13d, 8-(3-bromophenethyl)-1-methyl-6,7,8,9-tetrahydropyrazino[2,1-f]purine-2,4(1H,3H)-dione] | > 1.5 | 1 | 15 | > 1 | > 1 | 1 | ~10 |  |  | 45 |  | 
Cn1c(=O)[nH]c(=O)c2c1nc1n2CCN(CCc2cccc(C(F)(F)F)c2)C1 [Compound 13e, 1-methyl-8-(3-(trifluoromethyl)phenethyl)-6,7,8,9-tetrahydropyrazino[2,1-f]purine-2,4(1H,3H)-dione] | > 1.5 | 9 | 4 | > 1 | > 0.3 |  | > 10 | 47 | ~10 | 39 | 8 | 
Cn1c(=O)[nH]c(=O)c2c1nc1n2CCN(CCc2cccc(Cl)c2)C1 [Compound 13c, 8-(3-chlorophenethyl)-1-methyl-6,7,8,9-tetrahydropyrazino[2,1-f]purine-2,4(1H,3H)-dione] | > 1.5 | 3 | 1 | > 1 | > 1 | 18 | > 10 | 54 | ~10 | 49 |  | 
C#CCn1c(=O)c2c(nc3n2CCN(c2ccccc2F)C3)n(CC)c1=O [Compound 20a, 1-ethyl-8-(2-fluorophenyl)-3-propargyl-6,7,8,9-tetrahydropyrazino[2,1-f]purine-2,4(1H,3H)-dione] | 1.14 |  |  | 1.38 | > 1 | 8 | 4.27 | 29 | > 10 |  |  | 
CCn1c(=O)c2c(nc3n2CCN(Cc2ccc(C(F)(F)F)cc2)C3)n(C)c1=O [Compound 14f, 3-ethyl-1-methyl-8-(4-(trifluoromethyl)benzyl)-6,7,8,9-tetrahydropyrazino[2,1-f]purine-2,4(1H,3H)-dione] | > 1.5 | 9 | 7 | > 1 | > 0.1 |  | 18.6 | 32 | > 10 |  |  | 1
C#CCn1c(=O)c2c(nc3n2CCN(c2ccc(OC)c(OC)c2)C3)n(CC)c1=O [Compound 20d, 8-(3,4-dimethoxyphenyl)-1-ethyl-3-propargyl-6,7,8,9-tetrahydropyrazino[2,1-f]purine-2,4(1H,3H)-dione] | 1.67 |  |  | 1.58 | > 1 | 8 | 3.64 | 13 | > 10 |  |  | 
C#CCn1c(=O)c2c(nc3n2CCN(CCc2ccc(OC)c(OC)c2)C3)n(CC)c1=O [Compound 20l] | 3.8 |  |  | 7.4 | > 1 | 9 | > 10 | 3 | > 10 | 12 |  | 
CCn1c(=O)c2c(nc3n2CCN(Cc2cc(C(F)(F)F)cc(C(F)(F)F)c2)C3)n(CC)c1=O [Compound 15q, 8-(3,5-bis(trifluoromethyl)benzyl)-1,3-diethyl-6,7,8,9-tetrahydropyrazino[2,1-f]purine-2,4(1H,3H)-dione] | > 1.5 | 6 | 13 | > 1 | > 1 | 7 | > 10 | 27 | > 10 | 40 |  | 
